Assay results from ChEMBL document CHEMBL1201862, “PubChem BioAssay data set” (2004).
Counter-ions that a name gives are not always drawn. Activity calls are given as the source filed them.

What was measured:
[1] = Dose-response inhibition of insulin secretion in a rat insulinoma line at 5 mM glucose (AID 1117331); type: functional, cell-based; details: INS-1E
cells = type: functional, cell-based; details: INS-1E
[2] = inhibitors of HIV Env-driven cell fusion, dose response, cherry-pick (AID 652057); type: functional, cell-based
[3] = CEM21 lymphoblast cell cytotoxicity, dose response, cytotoxicity control for viral fusion inhibitor project, CellTiter-Glo luminescence, cherry-picked (AID 652042); type: functional, cell-based;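 also: potency for signal decrease meaning cytotoxicity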
[4] = ZM109 Env clade C HIV-1 fusion inhibitors, dose response, HeLa effector, CEM target cells, luciferase, cherry-pick (AID 652058); type: functional, cell-based
[5] = inhibitors of clade B AD8 Env fusion, dose response, cell-based, cherry-pick (AID 652062); type: functional;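 also: luciferase signal from cell-cell fusion driven by HIV-1 clade B AD8 Env; potency is for inhibitors of fusion seen as a drop in luminescence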
[6] = NIH-3T3 fibroblast cytotoxicity, dose response, cytotoxicity control, cell-based, fluorescence, Alamar Blue, secondary assay (AID 2327); type: functional;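 also: NIH-3T3 mouse fibroblasts cultured with fluconazole at 8 µg/mL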
[7] = C. albicans growth with fluconazole, confirmation, fluorescence, retest (AID 2467); type: functional, cell-based
fMet-Leu-Phe receptor = target: T1, fMet-Leu-Phe receptor (Homo sapiens, UniProt P21462); assay: FPR ligands, dose response (AID 519); type: functional
T1 sequence (P21462 whole entry): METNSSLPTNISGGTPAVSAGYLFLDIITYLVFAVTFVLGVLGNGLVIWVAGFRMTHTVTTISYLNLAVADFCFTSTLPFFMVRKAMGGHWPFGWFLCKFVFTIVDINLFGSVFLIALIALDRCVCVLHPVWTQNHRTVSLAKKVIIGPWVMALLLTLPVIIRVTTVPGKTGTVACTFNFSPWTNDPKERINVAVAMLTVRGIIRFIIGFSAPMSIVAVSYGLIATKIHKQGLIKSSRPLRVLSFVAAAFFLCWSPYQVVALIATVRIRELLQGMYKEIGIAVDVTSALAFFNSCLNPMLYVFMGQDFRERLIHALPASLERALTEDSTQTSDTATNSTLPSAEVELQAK

Paired box protein Pax-8 = Paired box protein Pax-8 (Homo sapiens, UniProt Q06710); assay: inhibitors of PAX8-driven TPO luciferase reporter, dose response, RMG-I cells, cherry-pick (AID 687027); type: functional, cell-based;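 also: luciferase reporter driven by Pax8 target thyroperoxidase promoter measured by SteadyGlo luminescence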
[8] = IOSE-T80 ovarian epithelial cell cytotoxicity, dose response, cytotoxicity control for PAX8 inhibitor project, plate reader, dry powder samples (AID 743045); type: functional, cell-based
[9] = NIH:OVCAR-3 ovarian cancer cell cytotoxicity, dose response, PAX8 inhibitor project, plate reader, dry powder samples (AID 743044); type: functional, cell-based
[10] = IGROV1 ovarian cancer cell cytotoxicity, dose response, PAX8 inhibitor project, plate reader, dry powder samples (AID 743043); type: functional, cell-based; details: IGROV-1
[11] = P. falciparum Dd2 growth inhibitors, dose response, SYBR Green, cherry-picked samples (AID 1159567); type: functional, cell-based
[12] = HepG2 cell cytotoxicity, dose response, cytotoxicity control, cherry-picked samples (AID 1159577); type: functional, cell-based
[13] = P. falciparum late gametocyte killing, dose response, luminescence (AID 1117278); type: functional, cell-based;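 also: gametocytes exposed to compound for 24 hours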
[14] = Jurkat T cell cytotoxicity, dose response, cytotoxicity control for P. falciparum gametocyte viability project, luminescence (AID 1117277); type: functional, cell-based;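 also: potency reflects loss of cellular ATP meaning fewer viable cells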
[15] = HeLa 2N DNA content increase, dose response, cell-based, IC50 (AID 1117349); type: functional
[16] = HeLa 4N DNA content increase, dose response, cell-based, IC50 (AID 1117351); type: functional
[17] = A549 cell cytotoxicity, dose response, cytotoxicity control, plate reader, cherry-pick, antagonist series (AID 743412); type: functional, cell-based
[18] = HepG2 cell cytotoxicity, dose response, cytotoxicity control, plate reader, cherry-pick, antagonist series (AID 743416); type: functional, cell-based
[19] = LGR2 antagonists, dose response, cell-based, HEK293, CRE-luciferase reporter, cherry pick, set 2 (AID 743343); type: functional;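 also: transfected cells were stimulated with diluted bursicon conditioned medium after compound addition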
[20] = MC4R antagonists, dose response, counter-screen for LGR2 antagonist project, cell-based, plate reader, cherry pick (AID 743444); type: functional;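 also: transfected HEK 293 cells stimulated with alpha-MSH peptide; potency of inhibitors of the alpha-MSH evoked signal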
[21] = HEK293 cell cytotoxicity, dose response, cytotoxicity control, plate reader, cherry-picked samples (AID 743446); type: functional, cell-based
[22] = test system: Streptococcus sp. 'group A'; assay: growth inhibition of control SK(-) GAS strain, dose response, counter-screen for streptokinase expression inhibitor project, luminescence, kanamycin, BacTiterGlo, confirmation (AID 1900); type: functional, organism-based
Streptococcus = assay: Group A Streptococcus viability loss, dose response, counter-screen for streptokinase expression inhibitor project, luminescence, BacTiterGlo (AID 1915); type: functional, organism-based;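 also: potency for reduction of bacterial viability or growth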
[23] = Artemis endonuclease inhibitor potency, dose response, biochemical, fluorescence intensity (AID 720701); type: functional;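 also: Artemis endonuclease enzyme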
HEK293 = assay: inhibitors of LMP1-driven NF-kB reporter, dose response, cell-based, HEK293, luciferase, cherry-pick (AID 588343); type: functional; details: Homo sapiens
[24] = target: T2, Fructose-bisphosphate aldolase (Mycobacterium tuberculosis, UniProt P9WQA3); assay: Fluorescence-based biochemical high throughput dose response assay for inhibitors of the fructose-bisphosphate aldolase (FBA) of M. tuberculosis.; type: functional
T2 sequence (P9WQA3 whole entry): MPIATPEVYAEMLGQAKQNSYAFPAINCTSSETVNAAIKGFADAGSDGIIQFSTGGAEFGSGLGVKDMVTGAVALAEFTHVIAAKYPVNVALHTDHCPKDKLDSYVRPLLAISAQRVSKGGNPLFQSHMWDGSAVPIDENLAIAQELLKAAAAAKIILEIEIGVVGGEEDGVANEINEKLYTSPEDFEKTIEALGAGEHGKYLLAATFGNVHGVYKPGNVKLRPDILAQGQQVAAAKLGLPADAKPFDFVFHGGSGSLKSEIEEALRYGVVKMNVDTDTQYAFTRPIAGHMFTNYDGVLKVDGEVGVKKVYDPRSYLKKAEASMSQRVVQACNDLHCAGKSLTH

Paired box protein Pax-8, sequence (Q06710 whole entry): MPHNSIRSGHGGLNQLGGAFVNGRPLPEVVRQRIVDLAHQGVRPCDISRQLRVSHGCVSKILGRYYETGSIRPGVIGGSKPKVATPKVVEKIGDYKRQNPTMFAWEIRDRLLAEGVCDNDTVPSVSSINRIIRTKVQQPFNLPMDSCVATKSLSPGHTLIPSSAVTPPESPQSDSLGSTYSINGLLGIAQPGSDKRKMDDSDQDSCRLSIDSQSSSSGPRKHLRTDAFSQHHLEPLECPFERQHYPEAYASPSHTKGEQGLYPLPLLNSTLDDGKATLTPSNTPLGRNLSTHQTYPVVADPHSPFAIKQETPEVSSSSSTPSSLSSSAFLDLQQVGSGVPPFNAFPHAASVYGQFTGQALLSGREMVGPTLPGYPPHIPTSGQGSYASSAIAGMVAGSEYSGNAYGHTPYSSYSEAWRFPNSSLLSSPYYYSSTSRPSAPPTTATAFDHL

Structure (SMILES): CCCCN1CCCC[C@H]1C(=O)Nc1c(C)cccc1C [LEVOBUPIVACAINE HYDROCHLORIDE]
- IC50 [1]: 27.2 µM (inactive)
- IC50 (cells): > 33.3 µM (inactive)

Structure (SMILES): COc1cccc(S(=O)(=O)N(C)C[C@H]2Oc3cc(C4=CCCC4)ccc3S(=O)(=O)N([C@@H](C)CO)C[C@H]2C)c1
- AC50 [2]: 1.87 µM (active)
- AC50 [3]: 64.2 µM (active)
- AC50 [4]: 1.62 µM (active)
- AC50 [5]: 3.01 µM (active)

Structure (SMILES): COCCN1C(=O)C(O)=C(C(=O)c2ccco2)C1c1cccc(Oc2ccccc2)c1 (centres undefined)
- EC50 [6]: > 150 µM (inactive)
- EC50 [7]: 4.35 µM (active)
- Ki (fMet-Leu-Phe receptor): 56 µM (inactive)

Structure (SMILES): O=C(Nc1ccc(F)cc1)N1CCCCN2[C@@H](CO)[C@@H](c3ccc(C#Cc4ccccc4)cc3)[C@@H]2C1
- AC50 (Paired box protein Pax-8): 18.7 µM (active)
- AC50 [8]: 55.1 µM (active)
- AC50 [9]: 19.2 µM (active)
- AC50 [10]: 21 µM (active)
- AC50 [11]: 2.61 µM (active)
- AC50 [12]: 7.97 µM (active)

Structure (SMILES): CCCc1cc(O)nc(SCC(=O)N2CCN(S(=O)(=O)c3ccc4ccccc4c3)CC2)n1
- IC50 [13]: > 109 µM (inactive)
- IC50 [14]: > 83.3 µM (inactive)

Structure (SMILES): CN(C)CCC=C1c2ccccc2CCc2ccccc21 [AMITRIPTYLINE HYDROCHLORIDE]
- IC50 [15]: > 10 µM (inactive)
- IC50 [1]: 3 µM (active)
- IC50 (cells): > 33.3 µM (inactive)
- IC50 [16]: > 10 µM (inactive)

Structure (SMILES): Cn1nnnc1Sc1ncnc2scc(-c3ccc([N+](=O)[O-])cc3)c12
- AC50 (Paired box protein Pax-8): 2.57 µM (active)
- AC50 [17]: 6.71 µM (active)
- AC50 [18]: 7.05 µM (active)
- AC50 [19]: 6.25 µM (active)
- AC50 [20]: 5.32 µM (active)
- AC50 [21]: 6.48 µM (active)

Structure (SMILES): CC(C)Cn1c2c(c(O)c(C(=O)Nc3ncccc3O)c1=O)CCCC2
- EC50 [22]: 2.97 µM (active)
- EC50 (Streptococcus): 3.34 µM (active)
- IC50 [23]: 16.3 µM (active)

Structure (SMILES): COc1ccc(-c2[nH]ncc2-c2ccc3c(c2)OCCO3)c(O)c1
- AC50 (HEK293): 1.78 µM (active)
- AC50 [18]: > 52 µM (inactive)
- AC50 [19]: 2.97 µM (active)
- AC50 [20]: 0.723 µM (active)
- AC50 [21]: > 52 µM (inactive)

Structure (SMILES): COCC(=O)N1CCC2(CC1)CN(Cc1ccccc1F)[C@H](CO)c1[nH]c3cc(OC)ccc3c12
- AC50 [11]: 7.02 µM (active)
- AC50 [12]: > 39 µM (inactive)

Structure (SMILES): COc1ccc(NC(=O)C(c2ccc(C)cc2)N(C)C(=O)c2cnccn2)cc1 (centres undefined)
- Ki (fMet-Leu-Phe receptor): > 66.7 µM (inactive)

Structure (SMILES): CC(=O)N1CCN(C(=O)c2cc(-c3ccc(Cl)s3)nc3ccccc23)CC1
- IC50 [24]: 1.17 µM (active)
